This is an account of results in ChEMBL document CHEMBL5360570, “Discovery of pyrazolo[3,4-b]pyridine derivatives as novel and potent Mps1 inhibitors for the treatment of cancer” (Eur J Med Chem, 2023).

Data set [1] addresses T1, Dual specificity protein kinase TTK (Homo sapiens, UniProt P33981).
T1 sequence (P33981 whole entry): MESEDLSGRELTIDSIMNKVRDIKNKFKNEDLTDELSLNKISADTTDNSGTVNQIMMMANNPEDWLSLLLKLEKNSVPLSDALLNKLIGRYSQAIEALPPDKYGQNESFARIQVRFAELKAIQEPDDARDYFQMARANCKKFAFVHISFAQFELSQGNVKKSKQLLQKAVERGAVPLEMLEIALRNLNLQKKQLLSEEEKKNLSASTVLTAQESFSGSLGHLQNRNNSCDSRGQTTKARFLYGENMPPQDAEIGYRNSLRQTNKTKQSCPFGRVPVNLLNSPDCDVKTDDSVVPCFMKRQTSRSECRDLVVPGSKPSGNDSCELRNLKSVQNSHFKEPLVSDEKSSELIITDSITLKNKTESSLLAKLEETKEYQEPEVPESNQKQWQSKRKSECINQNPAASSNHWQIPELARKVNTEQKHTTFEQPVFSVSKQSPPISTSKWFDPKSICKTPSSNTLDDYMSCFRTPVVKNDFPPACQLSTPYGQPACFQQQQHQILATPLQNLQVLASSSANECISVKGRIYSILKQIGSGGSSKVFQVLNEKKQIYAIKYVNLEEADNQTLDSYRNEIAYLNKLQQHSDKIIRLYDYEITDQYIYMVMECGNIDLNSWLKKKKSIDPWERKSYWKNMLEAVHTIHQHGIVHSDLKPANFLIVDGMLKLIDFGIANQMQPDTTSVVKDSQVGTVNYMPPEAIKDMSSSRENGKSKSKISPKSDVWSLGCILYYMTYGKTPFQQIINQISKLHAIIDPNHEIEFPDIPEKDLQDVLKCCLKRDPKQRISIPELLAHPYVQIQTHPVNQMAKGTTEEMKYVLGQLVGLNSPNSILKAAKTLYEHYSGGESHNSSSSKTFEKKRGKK
Put plainly: Inhibition of Mps1 (unknown origin) pretreated for 10 mins followed by substrate addition and measured after 60 mins in presence of ATP by ADP-glo kinase assay. In general terms: ADP-Glo first removes unused ATP, then detects ADP through luciferase.

Data set [2] relates to MDA-MB-468. Briefly: cells. In kind it is functional, cell-based. To be noted: Homo sapiens, MDA-MB-468, 72 h.
Description: Antiproliferative activity against human MDA-MB-468 cells assessed inhibition of cell growth incubated for 72 hrs by CCK-8 assay
For data set [3], the system named is MDA-MB-468. Briefly: Antiproliferative activity against human MDA-MB-468 cells assessed inhibition of cell growth at 2 uM incubated for 72 hrs by CCK-8 assay relative to control. In kind it is functional. (In general: Tetrazolium dyes change colour on reduction, which living cells bring about.)
In data set [4] the target is T2, Dual specificity protein kinase TTK (Homo sapiens) (UniProt P33981).
T2 sequence (whole entry): T1 sequence (P33981 whole entry)
Put plainly: Inhibition of Mps1 (unknown origin) at 1000 nM pretreated for 10 mins followed by substrate addition and measured after 60 mins in presence of ATP by ADP-glo kinase assay relative to control. To be noted: time 70.0 min.

Data set [5] concerns MDA-MB-231. Briefly: Antiproliferative activity against human MDA-MB-231 cells assessed inhibition of cell growth incubated for 72 hrs by CCK-8 assay. In kind it is functional.
Data set [6] deals with MCF7. Put plainly: Antiproliferative activity against human MCF7 cells assessed inhibition of cell growth incubated for 72 hrs by CCK-8 assay relative to control. It is filed as functional.
Data set [7] deals with MV4-11. Briefly: Antiproliferative activity against human MV4-11 cells assessed inhibition of cell growth incubated for 72 hrs by CCK-8 assay relative to control. It is filed as functional.
Data set [8] in a line: Antiproliferative activity against human RBE cells assessed inhibition of cell growth incubated for 72 hrs by CCK-8 assay relative to control. It is filed as functional.
The nature of data set [9]: Metabolic stability in human liver microsome assessed as half life preincubated for 10 mins followed by NADPH addition and measured upto 60 mins by LC-MS/MS analysis. It is filed as ADME. To be noted: liver microsomes, time < 70 min. On the technique in general: Liver microsomes are vesicles of endoplasmic reticulum, rich in cytochrome P450 enzymes.
Data set [10] in a line: Metabolic stability in human microsome assessed as intrinsic clearance preincubated for 10 mins followed by NADPH addition and measured upto 60 mins by LC-MS/MS analysis. In kind it is ADME. To be noted: microsomes, time < 70 min.
Data set [11] is described as follows: Metabolic stability in human liver microsome assessed as intrinsic clearance preincubated for 10 mins followed by NADPH addition and measured upto 60 mins by LC-MS/MS analysis. It is filed as ADME. To be noted: liver microsomes, time < 70 min, read-out: CLH.

A word on the IC50: it is the point on the concentration scale where inhibition reaches its midpoint. With `CCc1cccc(CC)c1N1CCn2cc(-c3nc(Nc4ccc(N5CCOCC5)cc4OC)nc4[nH]ncc34)cc2C1=O`, the IC50 was determined as 6.14 nM in [1] and 663 nM in data set [2].

The inhibition is the drop in the measured response relative to a control, in per cent. Regarding `C=C(F)C(=O)Nc1cc(N2CCN(C(C)=O)CC2)ccc1Nc1nc(-n2ccc(C(=O)Nc3c(CC)cccc3CC)c2)c2cn[nH]c2n1`, the concentration for half-maximal inhibition (IC50) in [1] was > 1000 nM. Besides, in data set [3], the inhibition at 2 µM is -1.41%.

Turning to `COc1cc(N2CCN(C(C)=O)CC2)ccc1Nc1nc(OC2CCCC2)c2c(-c3ccc(OC)c(OC)c3)n[nH]c2n1`, in data set [4], the inhibition was determined as 51.2%. The same compound returned an IC50 in data set [2] of 1000 nM. The inhibition at 2 µM in [3] amounted to 81.5%. For the same compound, the “inhibition (INH)” value in data set [5] stood at 26.44%; in [6] it was 17.16%; in [7], 8.63%; in [8], 39.75%.

A word on the half-life: it is how long it takes for the measured level to halve. As usually defined, the microsomal CLint is the rate of metabolic loss divided by the concentration. Consider `O=C(O)Cc1ccccc1Nc1c(Cl)cccc1Cl` [DICLOFENAC], for which the half-life in data set [9] was determined as 11 min. The microsomal CLint in [10] was 126 µL/min/mg. For the same compound, in [11], the CLint scaled was 113 mL/min/kg.

Regarding `COc1cc(N2CCC(N(C)C)CC2)ccc1Nc1nc(OC2CCCCC2)c2c(-c3ccc(OC)c(OC)c3)n[nH]c2n1`, the inhibition in data set [4] was determined as 70.7%. Moreover, the inhibition at 2 µM in data set [3] is 68.5%. Further, the “inhibition (INH)” value is 66.51% in [5], 25.38% in data set [6], 20.47% in data set [7] and 28.45% in data set [8].

Turning to `COc1cc(N2CCC(N(C)C)CC2)ccc1Nc1nc(OC2CCCC2)c2c(-c3ccc(OC)c(OC)c3)n[nH]c2n1`, the IC50 in data set [1] was determined as 4.84 nM; in data set [2], 1270 nM. Moreover, in [4], the inhibition worked out at 84.7%. Also, in [3], the inhibition at 2 µM was found to be 94.3%. The “inhibition (INH)” value in data set [5] is listed as 72.16%; in data set [6], 25.87%; in data set [7] it was 21.89%; in data set [8], 36.32%.

Regarding `COc1ccc(-c2n[nH]c3nc(Nc4ccccc4)nc(OC4CCCC4)c23)cc1OC`, the inhibition in data set [4] was 15.2%. For the same compound, in [3], the inhibition at 2 µM was found to be 19.9%. The “inhibition (INH)” value was 26.44% in [5], 4.54% in data set [6], -13.46% in data set [7] and 4.28% in data set [8].

Consider `COc1ccc(-c2n[nH]c3nc(Nc4ccc(N5CCC(N(C)C)CC5)cc4OC)nc(OC4CCCC4)c23)cc1`, for which the inhibition in [4] turned out to be 35.7%. In addition, the inhibition at 2 µM in data set [3] was determined as 5.57%. For the same compound, the “inhibition (INH)” value in [5] is reported as 10.57%; in data set [6], 10.76%; in [7], -10.86%; in [8], 7.85%.

As to `COc1cccc(-c2n[nH]c3nc(Nc4ccc(N5CCC(N(C)C)CC5)cc4OC)nc(OC4CCCC4)c23)c1`, the inhibition in data set [4] was 44.5%. Further, the inhibition at 2 µM in data set [3] was found to be 2.34%. In addition, the “inhibition (INH)” value in data set [5] was 22.71%; in data set [6], 22.33%; in data set [7], -1.1%; in data set [8] it was 4.83%.

For the compound `C=CC(=O)Nc1cc(N2CCOCC2)ccc1Nc1nc(-c2cc3n(c2)CCN(c2c(CC)cccc2CC)C3=O)c2cn[nH]c2n1`, the results for the IC50 in data set [1] and in [2] were > 1000 nM and 2620 nM, respectively.

`C=CC(=O)Nc1cc(NC(=O)CC)ccc1Nc1nc(-n2ccc(C(=O)Nc3c(CC)cccc3CC)c2)c2cn[nH]c2n1`: the IC50 in data set [1] is > 1000 nM. For the same compound, the inhibition at 2 µM in [3] turned out to be 5.51%.

Take `CCc1cccc(CC)c1NC(=O)c1ccn(-c2nc(Nc3ccc(N4CCOCC4)cc3N3CCN(C)CC3)nc3[nH]ncc23)c1`: in data set [1], the IC50 was > 1000 nM. In addition, in data set [3], the inhibition at 2 µM is -1.94%.

For the compound `COc1cc(N2CCN(C)CC2)ccc1Nc1nc(-n2ccc(C(=O)Nc3c(C)cccc3C)c2)c2cn[nH]c2n1`, the IC50 in [1] is 3.81 nM; in data set [2], 857 nM.

Consider `COc1cc(N2CCN(C(C)=O)CC2)ccc1Nc1nc(-n2ccc(C(=O)Nc3c(C)cccc3C)c2)c2cn[nH]c2n1`, for which the IC50 in data set [1] is 8.52 nM. Moreover, the inhibition at 2 µM in data set [3] came out at 34.8%.

With `CCC(=O)Nc1cc(N2CCN(C(C)=O)CC2)ccc1Nc1nc(-n2ccc(C(=O)Nc3c(CC)cccc3CC)c2)c2cn[nH]c2n1`, the IC50 in data set [1] was > 1000 nM. Further, the inhibition at 2 µM in [3] is -3.96%.

For the compound `COc1cc(N2CCC(N(C)C)CC2)ccc1Nc1nc(OC2CC2)c2c(-c3ccc(OC)c(OC)c3)n[nH]c2n1`, the inhibition in data set [4] was 63.9%. Besides, in [3], the inhibition at 2 µM was determined as 30%. The “inhibition (INH)” value in data set [5] is reported as 35.24%; in data set [6], 20.26%; in [7], -17.18%; in data set [8], 14.2%.

`CC#CC(=O)Nc1cc(N2CCOCC2)ccc1Nc1nc(-n2ccc(C(=O)Nc3c(CC)cccc3CC)c2)c2cn[nH]c2n1`: the IC50 in data set [1] is > 1000 nM. In addition, the inhibition at 2 µM in data set [3] was -0.47%.

As to `CCc1cccc(CC)c1NC(=O)c1ccn(-c2nc(Nc3ccc(N4CCN(C)CC4)cc3OC)nc3[nH]ncc23)c1`, the IC50 in data set [1] was determined as 3.37 nM. Further, in data set [3], the inhibition at 2 µM is 64.3%.

`C=CC(=O)Nc1cc(N2CCN(C(C)=O)CC2)ccc1Nc1nc(-n2ccc(C(=O)Nc3c(CC)cccc3CC)c2)c2cn[nH]c2n1`: in [1], the IC50 is > 1000 nM. Also, in [3], the inhibition at 2 µM was -2.46%.

In the case of `C#CC(=O)Nc1cc(N2CCN(C(C)=O)CC2)ccc1Nc1nc(-n2ccc(C(=O)Nc3c(CC)cccc3CC)c2)c2cn[nH]c2n1`, the IC50 in [1] is > 1000 nM. Further, the inhibition at 2 µM in [3] was found to be 7.17%.

Turning to `C=CC(=O)Nc1cc(N2CCN(C(C)=O)CC2)ccc1Nc1nc(-c2cc3n(c2)CCN(c2c(CC)cccc2CC)C3=O)c2cn[nH]c2n1`, the IC50 in data set [1] is > 1000 nM. Also, the inhibition at 2 µM in [3] stood at 0.38%.

`COc1cc(N2CCOCC2)ccc1Nc1nc(OC2CCCC2)c2c(-c3ccc(OC)c(OC)c3)n[nH]c2n1`: the inhibition in data set [4] is 59.9%. Besides, it took 2090 nM to reach half-maximal inhibition in [2] (IC50). Further, in data set [3], the inhibition at 2 µM is 69.7%. For the same compound, the “inhibition (INH)” value in [5] is 21.19%; in data set [6], 10.48%; in data set [7] it was -22.73%; in data set [8], 11.97%.

With `CCc1cccc(CC)c1NC(=O)c1ccn(-c2nc(Nc3ccc(N4CCN(C(C)=O)CC4)cc3NC(C)=O)nc3[nH]ncc23)c1`, the IC50 in data set [1] was > 1000 nM. The inhibition at 2 µM in [3] is -2.92%.

`COc1cc(N2CCCCC2)ccc1Nc1nc(OC2CCCC2)c2c(-c3ccc(OC)c(OC)c3)n[nH]c2n1`: in data set [4], the inhibition came out at 49.1%. Besides, the inhibition at 2 µM in [3] was -3.15%. For the same compound, the “inhibition (INH)” value in data set [5] was 25.74%; in data set [6] it was 16.66%; in data set [7], -21.2%; in data set [8] it was 16.61%.

The compound `COc1cc(OC2CCN(C)CC2)ccc1Nc1ncc2c(n1)n(C1CCCC1)c(=O)n2C` registered an IC50 in data set [2] of 2100 nM. The “inhibition (INH)” value in data set [5] is reported as 57.08%.

For `CCc1cccc(CC)c1NC(=O)c1ccn(-c2nc(Nc3ccc(N4CCN(C(C)=O)CC4)cc3OC)nc3[nH]ncc23)c1`, the results for the IC50 in [1] and in data set [2] were 4.03 nM and 371 nM, respectively.

`COc1cc(N2CCN(C)CC2)ccc1Nc1nc(OC2CCCC2)c2c(-c3ccc(OC)c(OC)c3)n[nH]c2n1`: the inhibition in data set [4] worked out at 63.9%. The inhibition at 2 µM in data set [3] was determined as 40.7%. Besides, the “inhibition (INH)” value in data set [5] is on record as 24.33%; in [6] it was 17.07%; in data set [7], -3.55%; in data set [8] it was 4.83%.
